ChEMBL document CHEMBL1201862, “PubChem BioAssay data set” (2004)
The source made the active and inactive calls.

Columns and labels:
[1] = target: Protein disulfide-isomerase (Homo sapiens, UniProt P07237); assay: PDI inhibitors, insulin aggregation turbidity, dose response, biochemical, absorbance, cherry-picked samples (AID 602350); format: functional
[2] = target: T1, Orexin/Hypocretin receptor type 1 (Homo sapiens, UniProt O43613); assay: (§1) Fluorescence-based cell-based high throughput dose response assay for antagonists of the orexin 1 receptor (OX1R; HCRTR1). [Related pubchem assays (depositor defined):AID434989, AID435008, AID463079, AID485270, AID492963, AID492964, AID492965, AID493232, AID504717, AID504718]; format: functional
T1 sequence (O43613 whole entry): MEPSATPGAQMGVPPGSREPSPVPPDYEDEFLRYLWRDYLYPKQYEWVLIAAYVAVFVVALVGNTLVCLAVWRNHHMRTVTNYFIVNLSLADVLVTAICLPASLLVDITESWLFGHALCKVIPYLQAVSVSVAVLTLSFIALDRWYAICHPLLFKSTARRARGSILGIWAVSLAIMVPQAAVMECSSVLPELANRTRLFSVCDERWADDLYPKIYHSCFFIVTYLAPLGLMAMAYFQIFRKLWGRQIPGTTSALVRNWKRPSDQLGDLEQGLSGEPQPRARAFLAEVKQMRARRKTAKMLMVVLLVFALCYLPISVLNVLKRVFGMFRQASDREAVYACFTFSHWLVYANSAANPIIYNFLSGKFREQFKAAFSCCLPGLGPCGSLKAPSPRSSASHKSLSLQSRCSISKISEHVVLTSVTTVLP

CHO-K1 = assay: (§2) Counterscreen for antagonists of the orexin 1 receptor (OX1R; HCRTR1): Homogeneous time resolved fluorescence (HTRF)-based cell-based dose response assay to identify antagonists of the parental CHO-K1 cell line. [Related pubchem assays (depositor defined):AID434989, AID435008, AID463079, AID485270, AID492963, AID492964, AID492965, AID493232, AID504699, AID504701]; format: functional; conditions: Cricetulus griseus
[3] = target: T1, Orexin/Hypocretin receptor type 1; assay: as §1, with “Homogeneous Time Resolved Fluorescence (HTRF)-based” for “Fluorescence-based”; format: functional
Orexin receptor type 2 [4] = target: T2, Orexin receptor type 2 (Homo sapiens, UniProt O43614); assay: Counterscreen assay for antagonists of the orexin 1 receptor (OX1R; HCRTR1): Homogeneous Time Resolved Fluorescence (HTRF)-based cell-based dose response assay for antagonists of the orexin 2 receptor (OX2R; HCRTR2), run by assay provider.; format: functional
T2 sequence (O43614 whole entry): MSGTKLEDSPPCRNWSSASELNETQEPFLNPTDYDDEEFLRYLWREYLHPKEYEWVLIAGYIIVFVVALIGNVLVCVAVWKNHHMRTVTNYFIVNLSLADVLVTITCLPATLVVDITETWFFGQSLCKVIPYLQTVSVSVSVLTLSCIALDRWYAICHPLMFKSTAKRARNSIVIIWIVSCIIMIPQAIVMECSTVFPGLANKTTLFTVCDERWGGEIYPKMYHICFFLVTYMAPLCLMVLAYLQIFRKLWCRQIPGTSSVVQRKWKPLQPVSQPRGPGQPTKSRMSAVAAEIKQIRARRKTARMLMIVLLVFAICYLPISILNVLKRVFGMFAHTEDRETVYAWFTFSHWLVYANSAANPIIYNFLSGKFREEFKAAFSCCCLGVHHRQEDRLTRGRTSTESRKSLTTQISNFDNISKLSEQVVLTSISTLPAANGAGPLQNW

Orexin receptor type 2 [5] = target: T2, Orexin receptor type 2; assay: Counterscreen assay for antagonists of the orexin 1 receptor (OX1R; HCRTR1): Fluorescence-based cell-based dose response assay for antagonists of the orexin 2 receptor (OX2R; HCRTR2), run by assay provider.; format: functional
[6] = as §2, with “Fluorescence-based” for “Homogeneous time resolved fluorescence (HTRF)-based”, “cell-based high throughput” for “cell-based”, “CHO” for “CHO-K1”; format: functional
[7] = target: T3, Voltage-gated N-type calcium channel alpha-1B subunit/Amyloid beta A4 precursor protein-binding family A member 1 (Homo sapiens, UniProt Q00975+Q02410); format: protein assay
T3 sequence (Q00975 whole entry, the tested form may be a part): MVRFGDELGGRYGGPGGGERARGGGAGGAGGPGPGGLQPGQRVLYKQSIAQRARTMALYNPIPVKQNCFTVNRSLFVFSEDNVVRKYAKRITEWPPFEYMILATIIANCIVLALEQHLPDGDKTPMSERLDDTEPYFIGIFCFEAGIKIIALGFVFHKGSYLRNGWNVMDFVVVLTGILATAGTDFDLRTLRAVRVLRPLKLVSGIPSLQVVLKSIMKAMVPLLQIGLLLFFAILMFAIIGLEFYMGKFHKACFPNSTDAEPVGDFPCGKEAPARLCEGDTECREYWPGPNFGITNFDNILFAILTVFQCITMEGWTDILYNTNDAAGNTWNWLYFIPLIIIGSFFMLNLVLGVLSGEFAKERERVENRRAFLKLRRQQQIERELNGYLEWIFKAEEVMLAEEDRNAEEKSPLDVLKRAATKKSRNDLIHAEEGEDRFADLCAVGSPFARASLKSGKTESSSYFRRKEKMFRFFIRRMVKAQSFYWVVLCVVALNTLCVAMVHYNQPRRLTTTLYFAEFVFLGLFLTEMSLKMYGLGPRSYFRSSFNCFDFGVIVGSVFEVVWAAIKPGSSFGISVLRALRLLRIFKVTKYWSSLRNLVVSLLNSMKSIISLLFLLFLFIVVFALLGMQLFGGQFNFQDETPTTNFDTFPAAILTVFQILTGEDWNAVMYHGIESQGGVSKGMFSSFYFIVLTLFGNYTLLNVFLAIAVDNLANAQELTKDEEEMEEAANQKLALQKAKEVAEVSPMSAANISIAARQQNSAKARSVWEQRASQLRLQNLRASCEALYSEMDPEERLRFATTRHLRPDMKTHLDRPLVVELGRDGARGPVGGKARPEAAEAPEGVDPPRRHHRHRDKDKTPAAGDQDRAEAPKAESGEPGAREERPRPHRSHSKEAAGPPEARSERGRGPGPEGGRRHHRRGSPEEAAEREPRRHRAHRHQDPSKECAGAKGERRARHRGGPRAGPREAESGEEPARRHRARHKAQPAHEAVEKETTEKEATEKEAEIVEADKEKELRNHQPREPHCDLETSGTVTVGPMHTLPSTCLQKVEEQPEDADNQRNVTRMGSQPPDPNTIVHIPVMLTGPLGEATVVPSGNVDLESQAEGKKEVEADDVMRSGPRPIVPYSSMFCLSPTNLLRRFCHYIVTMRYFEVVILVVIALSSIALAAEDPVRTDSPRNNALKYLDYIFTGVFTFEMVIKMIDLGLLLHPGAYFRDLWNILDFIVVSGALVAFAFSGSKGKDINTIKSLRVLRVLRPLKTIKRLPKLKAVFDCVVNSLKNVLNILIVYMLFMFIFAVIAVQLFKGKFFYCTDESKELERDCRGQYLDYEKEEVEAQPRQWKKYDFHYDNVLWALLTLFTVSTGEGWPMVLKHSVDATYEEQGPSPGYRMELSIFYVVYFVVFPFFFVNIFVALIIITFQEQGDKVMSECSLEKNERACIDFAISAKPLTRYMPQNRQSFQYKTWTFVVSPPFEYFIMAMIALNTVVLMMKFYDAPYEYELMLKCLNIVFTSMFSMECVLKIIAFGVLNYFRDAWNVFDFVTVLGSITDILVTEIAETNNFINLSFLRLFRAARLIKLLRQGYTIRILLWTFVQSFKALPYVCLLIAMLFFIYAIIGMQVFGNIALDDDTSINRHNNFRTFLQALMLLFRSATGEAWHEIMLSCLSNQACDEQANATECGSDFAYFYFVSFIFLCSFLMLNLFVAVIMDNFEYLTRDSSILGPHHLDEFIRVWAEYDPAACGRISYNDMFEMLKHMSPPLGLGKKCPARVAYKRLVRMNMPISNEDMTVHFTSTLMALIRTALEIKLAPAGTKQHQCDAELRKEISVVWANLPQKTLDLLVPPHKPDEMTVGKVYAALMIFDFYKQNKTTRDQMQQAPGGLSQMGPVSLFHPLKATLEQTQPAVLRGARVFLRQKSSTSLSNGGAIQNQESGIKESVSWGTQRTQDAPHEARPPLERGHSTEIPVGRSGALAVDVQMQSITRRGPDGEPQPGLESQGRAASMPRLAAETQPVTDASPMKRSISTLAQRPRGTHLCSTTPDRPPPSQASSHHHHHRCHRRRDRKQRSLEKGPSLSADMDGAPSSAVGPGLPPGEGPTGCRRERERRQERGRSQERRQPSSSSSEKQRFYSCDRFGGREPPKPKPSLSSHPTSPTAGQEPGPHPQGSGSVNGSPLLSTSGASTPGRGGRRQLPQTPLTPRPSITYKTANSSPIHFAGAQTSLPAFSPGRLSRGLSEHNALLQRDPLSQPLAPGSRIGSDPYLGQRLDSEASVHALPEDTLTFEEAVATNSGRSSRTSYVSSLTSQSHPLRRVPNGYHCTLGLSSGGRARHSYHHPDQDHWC
T3 sequence (Q02410 whole entry, the tested form may be a part): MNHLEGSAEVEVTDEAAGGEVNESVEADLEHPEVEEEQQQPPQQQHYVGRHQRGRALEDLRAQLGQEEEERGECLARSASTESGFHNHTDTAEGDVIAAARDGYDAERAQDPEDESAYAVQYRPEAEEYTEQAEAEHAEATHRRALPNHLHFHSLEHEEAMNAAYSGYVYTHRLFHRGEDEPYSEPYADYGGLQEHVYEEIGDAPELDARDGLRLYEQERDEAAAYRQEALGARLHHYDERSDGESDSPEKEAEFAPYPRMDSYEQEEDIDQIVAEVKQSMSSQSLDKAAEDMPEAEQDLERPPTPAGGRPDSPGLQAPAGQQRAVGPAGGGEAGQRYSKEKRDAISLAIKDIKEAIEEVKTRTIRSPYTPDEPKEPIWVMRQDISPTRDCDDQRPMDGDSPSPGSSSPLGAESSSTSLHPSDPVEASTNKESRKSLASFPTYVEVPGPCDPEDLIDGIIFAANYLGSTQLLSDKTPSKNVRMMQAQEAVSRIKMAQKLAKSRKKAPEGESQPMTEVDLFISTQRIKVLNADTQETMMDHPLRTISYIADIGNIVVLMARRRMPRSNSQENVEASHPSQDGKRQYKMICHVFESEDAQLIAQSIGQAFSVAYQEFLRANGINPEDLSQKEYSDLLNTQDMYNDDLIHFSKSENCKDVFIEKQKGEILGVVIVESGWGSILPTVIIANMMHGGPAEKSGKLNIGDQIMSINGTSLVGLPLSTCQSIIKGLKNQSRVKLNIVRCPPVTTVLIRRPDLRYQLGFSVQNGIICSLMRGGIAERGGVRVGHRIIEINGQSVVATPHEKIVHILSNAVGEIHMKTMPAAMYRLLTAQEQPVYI

[8] = target: T4, Carboxy-terminal domain RNA polymerase II polypeptide A small phosphatase 1 (Homo sapiens, UniProt Q9GZU7); assay: inhibitors of CTDSP1, concentration-response testing, biochemical assay, absorbance-based, actives from ultra-high-throughput screening (AID 540297); format: functional
T4 sequence (Q9GZU7 whole entry): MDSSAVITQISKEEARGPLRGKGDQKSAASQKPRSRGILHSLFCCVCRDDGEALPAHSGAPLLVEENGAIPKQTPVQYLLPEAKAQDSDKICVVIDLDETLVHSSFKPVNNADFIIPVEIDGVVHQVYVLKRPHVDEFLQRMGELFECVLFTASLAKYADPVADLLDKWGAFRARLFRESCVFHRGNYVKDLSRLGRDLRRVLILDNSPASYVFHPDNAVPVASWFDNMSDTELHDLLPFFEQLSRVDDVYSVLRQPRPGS

Melanocortin receptor 4 = Melanocortin receptor 4 (Homo sapiens, UniProt P32245); assay: MC4R antagonist potency on cAMP, dose response, cell-based, TR-FRET, biased antagonists (AID 602298); format: functional;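 also: antagonist potency against agonist-stimulated cAMP production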
[9] = target: Neurotensin receptor type 1 (Homo sapiens, UniProt P30989); format: functional;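 also: Image-based confirmatory dose-response assay measuring agonist activity at NTR1; NTR1-expressing U2OS osteosarcoma cells imaged for beta-arrestin GFP spot formation; agonist potency where compounds increase beta-arrestin recruitment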
[10] = target: T5, Histone-lysine N-methyltransferase NSD2 (Homo sapiens, UniProt O96028); format: biochemical
T5 sequence (O96028 whole entry): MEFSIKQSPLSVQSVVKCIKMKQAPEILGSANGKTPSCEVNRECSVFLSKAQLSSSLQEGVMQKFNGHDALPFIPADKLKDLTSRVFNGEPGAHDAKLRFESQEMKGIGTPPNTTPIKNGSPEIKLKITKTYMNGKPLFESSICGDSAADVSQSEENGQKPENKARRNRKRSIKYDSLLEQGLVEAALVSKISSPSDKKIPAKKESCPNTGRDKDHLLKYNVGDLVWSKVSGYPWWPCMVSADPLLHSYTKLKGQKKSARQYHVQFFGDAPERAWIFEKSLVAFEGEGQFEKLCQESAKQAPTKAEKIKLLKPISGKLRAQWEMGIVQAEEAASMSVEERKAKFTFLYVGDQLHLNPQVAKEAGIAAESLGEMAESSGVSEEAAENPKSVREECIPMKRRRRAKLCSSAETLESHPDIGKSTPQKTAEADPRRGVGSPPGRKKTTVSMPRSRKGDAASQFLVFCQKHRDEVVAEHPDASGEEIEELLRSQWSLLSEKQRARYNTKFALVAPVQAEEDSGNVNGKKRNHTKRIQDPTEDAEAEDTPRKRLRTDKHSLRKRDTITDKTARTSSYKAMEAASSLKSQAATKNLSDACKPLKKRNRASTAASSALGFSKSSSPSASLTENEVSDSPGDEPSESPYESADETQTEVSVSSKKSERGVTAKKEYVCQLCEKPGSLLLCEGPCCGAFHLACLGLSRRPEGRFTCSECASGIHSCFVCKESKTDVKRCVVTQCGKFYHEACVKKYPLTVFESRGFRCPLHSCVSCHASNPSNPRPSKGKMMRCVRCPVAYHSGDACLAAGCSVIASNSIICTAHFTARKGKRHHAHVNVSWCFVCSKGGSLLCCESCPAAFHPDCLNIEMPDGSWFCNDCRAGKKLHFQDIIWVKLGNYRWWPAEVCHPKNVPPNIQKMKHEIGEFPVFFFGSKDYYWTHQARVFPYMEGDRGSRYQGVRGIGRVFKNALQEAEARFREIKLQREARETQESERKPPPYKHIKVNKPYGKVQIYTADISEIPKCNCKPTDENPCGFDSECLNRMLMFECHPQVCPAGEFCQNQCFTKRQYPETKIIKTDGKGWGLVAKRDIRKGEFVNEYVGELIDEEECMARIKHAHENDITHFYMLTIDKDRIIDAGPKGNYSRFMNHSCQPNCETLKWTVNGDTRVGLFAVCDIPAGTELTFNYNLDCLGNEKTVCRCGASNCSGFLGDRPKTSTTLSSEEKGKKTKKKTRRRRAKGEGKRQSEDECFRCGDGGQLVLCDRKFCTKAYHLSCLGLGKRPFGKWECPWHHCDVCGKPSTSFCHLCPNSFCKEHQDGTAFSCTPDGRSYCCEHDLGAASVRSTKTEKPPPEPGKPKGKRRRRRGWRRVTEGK

[11] = nonselective inhibitors of cellular cAMP signaling, dose response, counter-screen for MC4R biased antagonist project, cell-based, TR-FRET cAMP detection (AID 602305); format: functional;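 also: U2OS cells stimulated with forskolin near its EC80 as the cAMP inducer; potency is for inhibition of forskolin-stimulated cAMP signaling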
[12] = target: T3, Voltage-gated N-type calcium channel alpha-1B subunit/Amyloid beta A4 precursor protein-binding family A member 1; format: protein assay; remark: listed apart in the source
[13] = Vero cell cytotoxicity, dose response, cytotoxicity control for M. tuberculosis growth inhibitor project, Vero cells, purified and synthesized compounds, set 4 (AID 504854); format: functional; conditions: Mycobacterium tuberculosis
[14] = THP-1 cell cytotoxicity, cytotoxicity control, set 4 (AID 504911); format: functional; conditions: Mycobacterium tuberculosis
[15] = A Cell Based Secondary Assay to Explore Cytotoxicity in HepG2 Cells of Compounds that Modulate Mycobacterium tuberculosis in Media Containing Glycerol versus Media without Glycerol (2).; format: functional
[16] = THP-1 cell cytotoxicity, dose response, cytotoxicity control, set 3 (AID 504852); format: functional; conditions: Mycobacterium tuberculosis
[17] = Vero cell cytotoxicity, cytotoxicity control for M. tuberculosis inhibitor project, purified and synthesized samples, set 3 (AID 504684); format: functional
[18] = target: Serine/threonine-protein kinase pim-1 (Homo sapiens, UniProt P11309); format: functional
[19] = target: Glycogen synthase kinase-3 beta (Homo sapiens, UniProt P49841); format: functional;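 also: value comes from a broad kinome profiling panel, with GSK3B as the panel member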
[20] = target: Interleukin-1 receptor-associated kinase 4 (Homo sapiens, UniProt Q9NWZ3); format: functional
[21] = target: Mitogen-activated protein kinase kinase kinase kinase 4 (Homo sapiens, UniProt O95819); format: functional
[22] = target: Cell division cycle 7-related protein kinase (Homo sapiens, UniProt O00311); format: functional;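 also: value obtained from a kinome-wide kinase panel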
[23] = target: Homeodomain-interacting protein kinase 2 (Homo sapiens, UniProt Q9H2X6); format: functional;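 also: measured within a kinome-wide kinase profiling panel, HIPK2 being one panel member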
[24] = target: cAMP-dependent protein kinase catalytic subunit alpha (Homo sapiens, UniProt P17612); format: functional
[25] = target: Dual specificity protein kinase CLK4 (Homo sapiens, UniProt Q9HAZ1); format: functional
Chain of Dual specificity protein kinase CLK4 (Q9HAZ1 whole entry): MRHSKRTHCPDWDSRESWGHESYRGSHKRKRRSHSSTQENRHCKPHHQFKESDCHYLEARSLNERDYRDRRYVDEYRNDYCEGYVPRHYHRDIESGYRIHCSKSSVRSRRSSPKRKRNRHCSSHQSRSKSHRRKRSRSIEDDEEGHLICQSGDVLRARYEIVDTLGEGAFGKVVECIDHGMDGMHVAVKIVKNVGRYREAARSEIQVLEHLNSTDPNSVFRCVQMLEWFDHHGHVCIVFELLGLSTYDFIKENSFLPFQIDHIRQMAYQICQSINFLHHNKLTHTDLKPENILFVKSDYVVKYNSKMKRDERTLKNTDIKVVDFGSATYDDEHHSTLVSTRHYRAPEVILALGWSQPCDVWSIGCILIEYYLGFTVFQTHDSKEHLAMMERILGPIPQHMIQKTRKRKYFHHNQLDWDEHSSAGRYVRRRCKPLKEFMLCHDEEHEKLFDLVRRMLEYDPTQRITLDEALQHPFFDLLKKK

[26] = target: Melanin-concentrating hormone receptor 1 (Homo sapiens, UniProt Q99705); assay: Late-stage fluorescence-based counterscreen for antagonists of the G-protein coupled receptor 7 (GPR7): cell-based dose response assay to identify antagonists of the melanin-concentrating hormone receptor 1 (MCHR1) Set 5.; format: functional
Chain of Melanin-concentrating hormone receptor 1 (Q99705 whole entry): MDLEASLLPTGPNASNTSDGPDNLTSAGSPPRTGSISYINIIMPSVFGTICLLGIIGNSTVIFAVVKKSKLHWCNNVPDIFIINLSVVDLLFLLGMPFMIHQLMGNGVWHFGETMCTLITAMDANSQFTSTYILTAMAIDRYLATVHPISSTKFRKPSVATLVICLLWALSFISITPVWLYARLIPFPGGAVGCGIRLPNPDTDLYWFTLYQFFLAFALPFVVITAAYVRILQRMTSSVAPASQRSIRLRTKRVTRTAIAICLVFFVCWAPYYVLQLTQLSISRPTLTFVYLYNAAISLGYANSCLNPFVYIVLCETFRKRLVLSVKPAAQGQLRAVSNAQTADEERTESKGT

[27] = target: T6, Neuropeptides B/W receptor type 1 (Homo sapiens, UniProt P48145); assay: GPR7 antagonist potency, late-stage follow-up, cell-based, fluorescence, dose response, set 5 (AID 588566); format: functional
T6 sequence (P48145 whole entry): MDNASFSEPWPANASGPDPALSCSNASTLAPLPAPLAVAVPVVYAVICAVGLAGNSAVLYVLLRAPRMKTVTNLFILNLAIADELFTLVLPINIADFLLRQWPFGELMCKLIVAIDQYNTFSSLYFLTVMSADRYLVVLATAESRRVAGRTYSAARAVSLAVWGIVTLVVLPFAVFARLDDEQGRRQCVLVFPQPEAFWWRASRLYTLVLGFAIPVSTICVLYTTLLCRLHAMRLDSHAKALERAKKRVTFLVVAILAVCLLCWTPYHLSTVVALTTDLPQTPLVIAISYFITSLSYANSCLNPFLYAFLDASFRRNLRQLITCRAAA

[28] = target: T7, Apoptotic protease-activating factor 1 (Homo sapiens, UniProt O14727); assay: SAR analysis of small molecule Activators of Apaf-1 in a Fluorescent assay - set 2.; format: functional; conditions: read-out: EC50_Mean
T7 sequence (O14727 whole entry): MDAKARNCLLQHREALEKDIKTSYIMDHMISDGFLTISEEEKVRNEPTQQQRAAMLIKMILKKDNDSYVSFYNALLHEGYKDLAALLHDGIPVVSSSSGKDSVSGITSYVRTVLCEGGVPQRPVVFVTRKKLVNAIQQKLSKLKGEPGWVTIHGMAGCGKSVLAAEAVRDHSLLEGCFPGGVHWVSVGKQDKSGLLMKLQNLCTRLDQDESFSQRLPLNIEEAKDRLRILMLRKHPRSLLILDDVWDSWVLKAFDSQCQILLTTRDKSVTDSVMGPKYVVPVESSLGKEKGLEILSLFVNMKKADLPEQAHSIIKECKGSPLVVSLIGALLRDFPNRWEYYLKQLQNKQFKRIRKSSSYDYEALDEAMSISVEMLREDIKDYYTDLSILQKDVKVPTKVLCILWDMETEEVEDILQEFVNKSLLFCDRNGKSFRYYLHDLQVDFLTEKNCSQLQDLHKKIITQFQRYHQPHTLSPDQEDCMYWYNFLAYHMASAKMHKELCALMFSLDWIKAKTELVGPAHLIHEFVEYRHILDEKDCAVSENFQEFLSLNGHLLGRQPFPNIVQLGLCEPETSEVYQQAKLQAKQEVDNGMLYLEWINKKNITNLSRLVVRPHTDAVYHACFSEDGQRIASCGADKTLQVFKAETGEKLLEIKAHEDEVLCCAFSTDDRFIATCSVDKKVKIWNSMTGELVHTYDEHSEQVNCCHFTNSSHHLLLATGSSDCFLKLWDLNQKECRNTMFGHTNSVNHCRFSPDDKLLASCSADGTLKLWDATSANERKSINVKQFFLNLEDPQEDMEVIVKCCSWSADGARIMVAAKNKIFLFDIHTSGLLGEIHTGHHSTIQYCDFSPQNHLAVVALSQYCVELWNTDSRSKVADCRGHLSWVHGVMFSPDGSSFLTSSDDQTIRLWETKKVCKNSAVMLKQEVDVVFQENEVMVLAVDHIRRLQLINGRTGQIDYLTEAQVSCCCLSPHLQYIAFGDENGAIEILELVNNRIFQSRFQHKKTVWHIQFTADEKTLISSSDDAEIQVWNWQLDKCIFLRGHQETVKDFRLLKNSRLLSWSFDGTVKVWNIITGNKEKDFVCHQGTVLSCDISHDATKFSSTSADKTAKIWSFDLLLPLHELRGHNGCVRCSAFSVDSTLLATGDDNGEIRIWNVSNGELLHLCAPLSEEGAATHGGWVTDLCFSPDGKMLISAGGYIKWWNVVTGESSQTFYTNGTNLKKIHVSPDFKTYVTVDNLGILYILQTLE

[29] = SAR analysis of small molecule activators of Apaf-1 using a LZ-Caspase-9/Caspase-3 Fluorescent Selectivity assay - Set 2.; format: functional; conditions: read-out: EC50_Mean

C/C=C(\C)C(=O)NCCN1C2=NC[C@H](Cc3ccc(O)cc3)N2C[C@H]1Cc1ccc(O)cc1
AC50 [1]: 15.4 µM (active)

Cc1ccc(/C=C2/Sc3ccccc3N(CC(=O)NCC3CCCO3)C2=O)cc1 (stereo unspecified)
IC50 [2]: 5.59 µM (active) | IC50 (CHO-K1): > 66.2 µM (inactive) | IC50 [3]: 1.77 µM (active) | IC50 (Orexin receptor type 2 [4]): > 50 µM (inactive) | IC50 (Orexin receptor type 2 [5]): 29.8 µM (inactive) | IC50 [6]: > 49.8 µM (inactive)

O=C1NC(=O)C(=Cc2ccc(SC3CCCCC3)o2)C(=O)N1
IC50 [7]: > 50 µM (inactive) | IC50 [8]: 5.67 µM (active) | IC50 (Melanocortin receptor 4): > 21.5 µM (inactive) | EC50 [9]: 12.7 µM (active) | AC50 [10]: > 20 µM (inactive) | IC50 [11]: > 64.6 µM (inactive) | IC50 [12]: 14.5 µM (active)

CC1CCN(C(=O)C2CCN(c3nnc(-n4cccc4)s3)CC2)CC1
CC50 [13]: > 100 µM (active) | CC50 [14]: > 100 µM (active) | CC50 [15]: > 50 µM (active) | CC50 [16]: > 100 µM (active) | CC50 [17]: > 100 µM (active)

O=C1Nc2ccccc2Nc2cc(-c3ccncc3F)ccc21
Ki [18]: > 10 µM (inactive) | Ki [19]: 0.158 µM (active) | Ki [20]: 1.58 µM (active) | Ki [21]: 0.794 µM (active) | Ki [22]: 0.00398 µM (active) | Ki [23]: 0.631 µM (active) | Ki [24]: 1 µM (active) | Ki [25]: 0.0251 µM (active)

COc1c(F)cc(Oc2c(Cl)cnn(Cc3cccc4ccccc34)c2=O)cc1Cl
IC50 [26]: 11.2 µM (inactive) | IC50 [27]: 5.05 µM (active)

CC(CNC(C)c1ccccc1)C(=O)O (stereo unspecified)
EC50 [28]: 80.6 µM (active) | EC50 [29]: > 100 µM (inactive)
